Test results reported in US20230338363A1, “COMBINATION CHEMO-IMMUNOTHERAPY FOR PANCREATIC CANCER USING THE IMMUNOGENIC EFFECTS OF AN IRINOTECAN SILICASOME NANOCARRIER PLUS ANTI-PD-1” (The Regents of the University of California, priority 2020, published 2023).
Structures can show the parent of a compound that is named as a salt.

Experiments:
[1] = pKa and % protonated drug (Henderson-Hasselbalch equation); assay type: physicochemical
Description: FIG. 9, panels A-D, illustrates a dose- and time-dependent study on IRIN-induced lysosomal alkalization effect in KPC cells. Panel A) Dose-dependence. KPC cells were treated with indicated free IRIN dose for 24 hours, followed by DND 99 and Hoechst dye co-staining, similar to FIG. 1, panel C. We were able to discern a major signal drop at 20 µM. IRIN accumulation in the KPC cells is indicated by white arrows. Panel B) Time-dependence. KPC cells were treated using 300 µM free IRIN for indicated time period, followed by DND 99/Hoechst co-staining, similar to panel A. We were able to observe a major DND 99 signal drop as early as 1 h post incubation. Quantification of DND 99 fluorescence intensity in panels A and B higher presented in FIG. 1, panel D. Panel C) Similar to the experiment described in FIG. 1, panel C, KPC cells were exposed to IRIN (300 µM) or chloroquine (CQ, 32 µM) for 24 h. The disappearance of the red fluorescence staining in the acidifying organellar environment in IRIN- and CQ-treated cells is as a result of the alkalization effect of these weak-base molecules. Bars are 10 µm. Panel D) The Henderson-Hasselbalch (H—H) equation allows calculation of % protonated drug at different pH values. Although 83.3% of IRIN molecules are protonated at pH 7.4, the equilibrium shifts to ~99% of the molecules at a lysosomal relevant pH ~4.5-5.5. […]

KPC cells = assay: Lysosomal alkalization, LysoTracker Red DND 99 confocal microscopy; assay type: cell-based, mouse
Description: Approximately 1.5×10^4 KPC cells were seeded in µ-Slide 8 well (ibidi, 80826). To reveal the intracellular distribution of IRIN, attached KPC cells were treated with IRIN (300 µM) for 24 h. Cell membranes were stained using an Alexa Fluor® 594 conjugated WGA dye (Invitrogen™, W11262) at 2 µg/mL for 10 minutes. After washing, the cells were visualized using a Leica SP8-MD confocal microscope under the 100× objective lens. The excitation and emission wavelengths for IRIN were 405 nm and 440~490 nm, respectively^[51]
IRIN-treated KPC cells were washed and replenished with fresh media containing 100 nM DND-99 dye and 5 µg/mL Hoechst 33342 for nuclear staining. The cells were incubated at 37° C. for 0.5 h, followed by washing with phenol red free media. The cells were then visualized using a Leica SP8-MD confocal microscope under the 100× objective lens.
The of the IRIN silicasome on lysosomal alkalization was performed at drug concentrations of 75 µM and 300 µM in KPC cells. Empty silicasomes (in which a 500 µg/mL particle dose is representative of an encapsulated IRIN dose of 300 µM) was included as control. The assessment of LC3B, p62 and PD-L1 immunoblotting and IF staining were performed in KPC cells during treatment with the IRIN silicasome or empty silicasomes, as described for the free drug.

orthotopic KPC tumor = assay: Survival experiment, IRIN silicasome plus anti-PD-1 in orthotopic KPC tumor model; assay type: in vivo, mouse
Description: Panel A) Explanation of the KPC model, including orthotopic implant in the pancreas and technical development of the primary tumor and metastases that can be followed by IVIS imaging. Animals were sacrificed according to the moribund criteria shown. Panel B). Details of the survival experiment in tumor-bearing mice (n = 5-7), which were treated with free IRIN or the silicasome at an IRIN dose equivalent of 40 mg/kg IV every 3- or 4-days, with or without IP administration of 100 µg anti-PD-1 antibody, for a total of six administrations. Please notice that the antibody was administered two days after IRIN injection. Saline and anti-PD-1 antibody alone were used as controls. Kaplan-Meier plots were used to display the survival rate of the different animal groups (*p<0.05, Log Rank test).
The KPC-derived orthotopic tumor model in immunocompetent B6129SF1/J mouse was established as described in FIG. 4, panel A. ^[16] Briefly, 30 µL of DMEM/Matrigel (1:1 v/v), containing ~1×10^6 KPC-luc cells, was injected into the tail of the pancreas in female B6129SF1/J mice (8~10 weeks) by a short survival surgery procedure.^[16] In the first survival experiment (FIG. 4, panel B), tumor-bearing mice were randomly assigned into 6 groups (n = 5-7) and received IV injection of the IRIN formulations at API dose of 40 mg/kg. Anti-PD-1 antibody was injected at 100 µg/animal IP. To assess survival rate, animals were monitored daily up to the stage of spontaneous death or approaching moribund status (defined in FIG. 4, panel A)^[16, 36]. The survival data were plotted as Kaplan-Meier curves, followed by data analysis to derive mean survival time. Statistical analysis and p values were obtained by Log Rank testing (Mantel-Cox), using GraphPad Prism 7.00 software.

**Q.** Which results are given for `CCc1c2c(nc3ccc(OC(=O)N4CCC(N5CCCCC5)CC4)cc13)-c1cc3c(c(=O)n1C2)COC(=O)[C@]3(O)CC` [IRIN, Irinotecan hydrochloride trihydrate]?
**A.** % of molecules protonated ([1]; lysosomal relevant pH ~4.5-5.5): ~ 99%; % of molecules protonated ([1]; pH 7.4): 83.3%; time at which a major DND 99 signal drop is observed (KPC cells; 300 µM free IRIN): 1 h; IRIN dose at which a major DND 99 signal drop is discerned (KPC cells; 24 hours): 20 µM; DND 99 relative staining intensity (KPC cells; IRIN 300 µM, 24 h, untreated cells 57.9 ± 1.3, Image J): 13.9 ± 0.9; MST (median survival time) (orthotopic KPC tumor; IRIN 40 mg/kg IV, anti-PD-1 100 µg IP, six administrations, saline 19): 19 days; survival (Kaplan-Meier, Log Rank test) (orthotopic KPC tumor; IRIN 40 mg/kg IV, anti-PD-1 100 µg/mouse IP): no survival benefits; % ILS (% increase in life span, [(T - C)/C] × 100) (orthotopic KPC tumor; vs. saline): 0.0%
